Paper PMC6658524, “Lysosomal degradation of newly formed insulin granules contributes to β cell failure in diabetes” (Nature Communications, 2019)

Legend:
Assay in all cases: biochemical
Set-up in all cases: Eurofins KinaseProfiler panel of 60 kinases, per cent inhibition
[1] = target: BrSK2(h) (Homo sapiens, UniProt Q8IWQ3)
Description: (§1) A more detailed account of the discovery, chemistry and biochemical properties of this novel class of selective p38δ inhibitors will be given elsewhere.

[2] = target: CDK1/cyclinB(h) (Homo sapiens, UniProt P06493)
Description: as §1

[3] = target: T1, CaMKIIδ(h) (Homo sapiens, UniProt Q13557)
T1 construct: gene CAMK2D
T1 sequence (Q13557 whole entry): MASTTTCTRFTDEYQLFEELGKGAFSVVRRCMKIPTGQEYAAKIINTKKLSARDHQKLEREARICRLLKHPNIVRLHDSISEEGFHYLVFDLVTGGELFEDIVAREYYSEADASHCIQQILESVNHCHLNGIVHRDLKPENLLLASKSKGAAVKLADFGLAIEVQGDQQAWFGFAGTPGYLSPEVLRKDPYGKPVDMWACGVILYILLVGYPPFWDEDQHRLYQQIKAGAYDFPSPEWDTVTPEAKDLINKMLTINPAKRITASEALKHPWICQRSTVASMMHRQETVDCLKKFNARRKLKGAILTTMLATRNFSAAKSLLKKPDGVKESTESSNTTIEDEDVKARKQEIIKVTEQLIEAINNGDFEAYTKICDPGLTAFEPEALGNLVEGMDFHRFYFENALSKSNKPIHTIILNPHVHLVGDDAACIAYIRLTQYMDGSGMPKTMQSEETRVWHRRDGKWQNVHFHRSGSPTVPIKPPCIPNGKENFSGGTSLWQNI
Description: as §1

[4] = target: DDR2(h) (Homo sapiens, UniProt Q16832)
Description: as §1

[5] = target: DYRK2(h) (Homo sapiens, UniProt Q92630)
Chain of DYRK2(h) (Q92630 whole entry): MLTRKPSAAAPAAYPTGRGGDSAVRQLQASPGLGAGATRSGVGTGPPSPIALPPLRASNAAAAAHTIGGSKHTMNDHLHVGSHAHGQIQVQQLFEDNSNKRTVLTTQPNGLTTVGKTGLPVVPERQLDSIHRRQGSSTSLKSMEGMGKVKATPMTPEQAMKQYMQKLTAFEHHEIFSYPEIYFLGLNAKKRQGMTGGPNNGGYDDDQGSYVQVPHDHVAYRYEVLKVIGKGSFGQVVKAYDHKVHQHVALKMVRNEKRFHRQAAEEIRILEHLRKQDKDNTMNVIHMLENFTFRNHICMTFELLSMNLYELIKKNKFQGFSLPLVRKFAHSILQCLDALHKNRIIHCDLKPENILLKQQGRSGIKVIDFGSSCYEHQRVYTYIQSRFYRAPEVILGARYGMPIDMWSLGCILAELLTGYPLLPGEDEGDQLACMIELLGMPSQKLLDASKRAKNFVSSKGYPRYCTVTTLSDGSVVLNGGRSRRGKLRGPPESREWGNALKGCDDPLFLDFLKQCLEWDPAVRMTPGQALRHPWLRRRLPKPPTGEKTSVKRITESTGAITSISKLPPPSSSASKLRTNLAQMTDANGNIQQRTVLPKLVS
Description: as §1

[6] = target: EphB1(h) (Homo sapiens, UniProt P54762)
Chain of EphB1(h) (P54762 whole entry): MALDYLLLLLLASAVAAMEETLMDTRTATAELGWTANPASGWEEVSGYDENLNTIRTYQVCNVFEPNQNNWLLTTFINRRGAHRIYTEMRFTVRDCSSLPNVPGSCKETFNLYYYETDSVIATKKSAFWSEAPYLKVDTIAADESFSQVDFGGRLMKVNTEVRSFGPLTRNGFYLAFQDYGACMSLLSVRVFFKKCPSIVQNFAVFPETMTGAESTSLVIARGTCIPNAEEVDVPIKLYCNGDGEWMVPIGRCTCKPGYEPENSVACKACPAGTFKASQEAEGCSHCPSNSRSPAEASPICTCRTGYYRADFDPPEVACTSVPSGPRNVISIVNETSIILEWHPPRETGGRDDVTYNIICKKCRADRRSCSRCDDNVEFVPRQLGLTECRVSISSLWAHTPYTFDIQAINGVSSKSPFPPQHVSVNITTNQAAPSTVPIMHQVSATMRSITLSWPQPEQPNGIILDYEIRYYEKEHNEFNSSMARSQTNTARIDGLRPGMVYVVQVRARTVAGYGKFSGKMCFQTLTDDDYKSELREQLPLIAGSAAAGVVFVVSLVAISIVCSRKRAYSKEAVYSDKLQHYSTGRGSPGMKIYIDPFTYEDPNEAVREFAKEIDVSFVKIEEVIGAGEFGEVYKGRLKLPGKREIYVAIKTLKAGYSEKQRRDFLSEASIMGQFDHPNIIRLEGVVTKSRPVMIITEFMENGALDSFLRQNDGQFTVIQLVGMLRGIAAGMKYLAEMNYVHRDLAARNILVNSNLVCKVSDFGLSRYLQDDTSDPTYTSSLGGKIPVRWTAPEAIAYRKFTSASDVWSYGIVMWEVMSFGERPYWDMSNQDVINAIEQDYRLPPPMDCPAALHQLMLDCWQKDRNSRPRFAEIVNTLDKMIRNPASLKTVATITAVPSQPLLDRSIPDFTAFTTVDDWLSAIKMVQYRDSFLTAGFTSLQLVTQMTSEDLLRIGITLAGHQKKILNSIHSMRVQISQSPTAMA
Description: as §1

[7] = target: Flt3(h) (Homo sapiens, UniProt P36888)
Chain of Flt3(h) (P36888 whole entry): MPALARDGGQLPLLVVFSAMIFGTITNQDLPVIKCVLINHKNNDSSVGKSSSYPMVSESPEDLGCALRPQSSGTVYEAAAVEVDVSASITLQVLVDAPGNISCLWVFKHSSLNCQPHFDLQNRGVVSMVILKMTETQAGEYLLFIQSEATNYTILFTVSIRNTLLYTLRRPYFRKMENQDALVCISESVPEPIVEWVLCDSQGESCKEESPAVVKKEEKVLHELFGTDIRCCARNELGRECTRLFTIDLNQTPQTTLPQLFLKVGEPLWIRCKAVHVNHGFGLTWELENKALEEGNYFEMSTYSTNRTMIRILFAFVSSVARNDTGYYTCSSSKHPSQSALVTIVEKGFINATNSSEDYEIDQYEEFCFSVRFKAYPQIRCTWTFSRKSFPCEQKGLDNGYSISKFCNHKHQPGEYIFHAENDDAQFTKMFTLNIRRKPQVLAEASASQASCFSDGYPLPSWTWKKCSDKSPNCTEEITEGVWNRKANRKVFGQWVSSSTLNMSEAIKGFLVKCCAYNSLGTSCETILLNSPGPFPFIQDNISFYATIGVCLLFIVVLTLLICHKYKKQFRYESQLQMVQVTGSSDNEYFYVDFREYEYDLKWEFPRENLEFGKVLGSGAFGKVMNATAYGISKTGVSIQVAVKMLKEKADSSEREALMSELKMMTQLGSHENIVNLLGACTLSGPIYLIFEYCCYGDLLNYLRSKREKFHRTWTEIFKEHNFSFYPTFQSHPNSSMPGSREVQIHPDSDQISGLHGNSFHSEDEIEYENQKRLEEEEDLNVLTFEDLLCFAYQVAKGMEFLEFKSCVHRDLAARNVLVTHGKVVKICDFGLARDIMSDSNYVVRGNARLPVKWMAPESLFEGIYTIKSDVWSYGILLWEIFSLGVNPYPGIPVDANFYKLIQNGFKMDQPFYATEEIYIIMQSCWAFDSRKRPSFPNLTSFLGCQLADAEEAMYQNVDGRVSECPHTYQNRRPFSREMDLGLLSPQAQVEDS
Description: as §1

[8] = target: T2, IKKε(h) (Homo sapiens, UniProt Q14164)
T2 construct: gene IKBKE
Description: as §1

[9] = target: T3, IR(h) (Homo sapiens, UniProt P06213)
T3 construct: gene INSR
Description: as §1

[10] = target: JAK3(h) (Homo sapiens, UniProt P52333)
Chain of JAK3(h) (P52333 whole entry): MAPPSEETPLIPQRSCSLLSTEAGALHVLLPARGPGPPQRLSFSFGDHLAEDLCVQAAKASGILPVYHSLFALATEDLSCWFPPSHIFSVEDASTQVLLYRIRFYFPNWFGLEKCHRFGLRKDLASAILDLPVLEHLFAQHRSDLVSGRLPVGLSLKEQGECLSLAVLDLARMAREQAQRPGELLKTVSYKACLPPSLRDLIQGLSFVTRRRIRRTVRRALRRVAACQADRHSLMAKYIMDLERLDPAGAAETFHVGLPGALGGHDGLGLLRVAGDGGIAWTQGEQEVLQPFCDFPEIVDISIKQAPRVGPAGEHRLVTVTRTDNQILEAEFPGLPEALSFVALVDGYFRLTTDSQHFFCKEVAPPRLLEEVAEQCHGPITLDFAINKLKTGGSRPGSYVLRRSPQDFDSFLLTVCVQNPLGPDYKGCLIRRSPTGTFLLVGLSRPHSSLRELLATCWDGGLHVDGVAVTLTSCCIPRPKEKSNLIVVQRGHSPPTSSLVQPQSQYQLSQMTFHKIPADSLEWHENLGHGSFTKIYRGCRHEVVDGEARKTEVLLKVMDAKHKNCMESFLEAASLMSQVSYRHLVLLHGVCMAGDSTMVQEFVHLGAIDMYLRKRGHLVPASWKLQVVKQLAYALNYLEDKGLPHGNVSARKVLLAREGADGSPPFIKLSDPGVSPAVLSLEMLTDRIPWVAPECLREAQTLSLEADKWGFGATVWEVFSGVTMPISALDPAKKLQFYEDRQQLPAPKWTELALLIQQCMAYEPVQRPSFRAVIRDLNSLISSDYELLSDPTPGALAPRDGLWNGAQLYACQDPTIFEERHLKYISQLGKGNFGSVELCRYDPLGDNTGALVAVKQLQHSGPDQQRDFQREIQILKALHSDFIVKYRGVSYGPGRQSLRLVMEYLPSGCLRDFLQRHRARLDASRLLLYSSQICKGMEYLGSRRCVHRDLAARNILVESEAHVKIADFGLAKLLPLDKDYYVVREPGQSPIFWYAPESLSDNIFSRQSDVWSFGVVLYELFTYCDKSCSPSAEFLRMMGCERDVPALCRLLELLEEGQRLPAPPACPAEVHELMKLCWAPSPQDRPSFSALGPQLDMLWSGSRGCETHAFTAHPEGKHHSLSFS
Description: as §1

[11] = target: T4, MST2(h) (Homo sapiens, UniProt Q13188)
T4 construct: gene STK3
Description: as §1

[12] = target: T5, PDGFRα(h) (Homo sapiens, UniProt P16234)
T5 construct: gene PDGFRA
Description: as §1

[13] = target: T6, PI3 Kinase (p110α/p85α)(h) (Homo sapiens, UniProt P42336)
T6 construct: gene PIK3CA; p110α/p85α
Description: as §1

[14] = target: T7, PKCε(h) (Homo sapiens, UniProt Q02156)
T7 construct: gene PRKCE
Description: as §1

[15] = target: T8, PKCθ(h) (Homo sapiens, UniProt Q04759)
T8 construct: gene PRKCQ
T8 sequence (Q04759 whole entry): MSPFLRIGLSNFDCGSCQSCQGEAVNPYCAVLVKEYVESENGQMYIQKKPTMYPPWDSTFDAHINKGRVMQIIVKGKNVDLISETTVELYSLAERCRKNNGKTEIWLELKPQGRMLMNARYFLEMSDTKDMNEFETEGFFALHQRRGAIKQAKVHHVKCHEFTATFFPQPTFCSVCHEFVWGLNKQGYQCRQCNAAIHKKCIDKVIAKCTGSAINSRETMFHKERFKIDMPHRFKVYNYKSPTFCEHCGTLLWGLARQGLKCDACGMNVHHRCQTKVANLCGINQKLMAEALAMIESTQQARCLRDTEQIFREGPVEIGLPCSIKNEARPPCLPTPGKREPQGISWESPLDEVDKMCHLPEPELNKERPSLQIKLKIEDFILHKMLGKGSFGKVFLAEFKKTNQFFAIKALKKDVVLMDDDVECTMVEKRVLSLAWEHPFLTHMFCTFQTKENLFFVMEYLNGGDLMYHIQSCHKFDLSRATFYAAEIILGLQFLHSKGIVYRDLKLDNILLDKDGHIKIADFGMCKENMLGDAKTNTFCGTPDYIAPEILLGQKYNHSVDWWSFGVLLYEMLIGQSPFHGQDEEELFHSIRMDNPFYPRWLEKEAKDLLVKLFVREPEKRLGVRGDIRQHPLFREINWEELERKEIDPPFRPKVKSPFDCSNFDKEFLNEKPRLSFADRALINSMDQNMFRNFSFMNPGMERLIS
Description: as §1

[16] = target: T9, SAPK3(h) (Homo sapiens, UniProt P53778)
T9 construct: gene MAPK12
Description: as §1

[17] = target: T10, TrkA(h) (Homo sapiens, UniProt P04629)
T10 construct: gene NTRK1
Description: as §1

In the case of `CCN1CCOc2nc(N3CCOCC3)nc(-c3ccc(NC(=O)OC)cc3)c2C1=O` [Compound A], the inhibition at 1 µM [1] was 5%, the inhibition at 10 µM [1] was 5% and the inhibition at 1 µM [2] was -5%. For the same compound, the inhibition at 10 µM [2] was 4%, the inhibition at 1 µM [3] was -6% and the inhibition at 10 µM [3] was 1%. The inhibition at 1 µM [4] was 6%, the inhibition at 10 µM [4] was 15% and the inhibition at 1 µM [5] was -10%. The inhibition at 10 µM [5] was -10%, the inhibition at 1 µM [6] was 6% and the inhibition at 10 µM [6] was 10%. The inhibition at 1 µM [7] was -30%, the inhibition at 10 µM [7] was -25% and the inhibition at 1 µM [8] was 16%. It also gave an inhibition at 10 µM [8] of 18%, an inhibition at 1 µM [9] of -21% and an inhibition at 10 µM [9] of -14%. For the same compound, the inhibition at 1 µM [10] was 0%, the inhibition at 10 µM [10] was -5% and the inhibition at 1 µM [11] was -16%. For the same compound, the inhibition at 10 µM [11] was -2%, the inhibition at 1 µM [12] was 1% and the inhibition at 10 µM [12] was 0%. It also gave an inhibition at 1 µM [13] of -1%, an inhibition at 10 µM [13] of 2% and an inhibition at 1 µM [14] of 8%. It also gave an inhibition at 10 µM [14] of 12%, an inhibition at 1 µM [15] of 7% and an inhibition at 10 µM [15] of 7%. The inhibition at 1 µM [16] was 11%, the inhibition at 1 µM [17] was -21% and the inhibition at 10 µM [17] was 5%.
